# Where “and” joins values, the source holds several entries; their conditions need not be identical. Equal values may be shown once. Read-outs that look alike come from different tables or passages of the source.
# Tests used:
# C57BL/6J mice = conditions: C57BL/6J (n=6); 300 cGy TBI + 200 mg/kg CyP
# Text: (§1) Three to five week old C57BL/10-Cd4^tml(CD4-KO;H2^b, n=5), C57BL/6J-CD4^tm/mak (CD4-KO; H2^b, n=15) CD57BL/6JCD8α^tm/mak (CD8-KO; H2^b, n=16), C57BL/6J (B6; H2^b, n=6), C57BL/6-6d4^tm/mak (CD4-KO) and C57BL/6-Cd8^tm/mak (CD8-KO)recipient mice, as well as three to five week old B10.BR/SgSnJ (B10.BR, H2^k) donor mice were purchased from the Jackson Laboratory (Bar Harbor, Me.). Knock-out mice were housed in a special pathogen-free barrier facility, while donor mice were housed in a conventional barrier animal facility. Mice were cared for according to National Institute of Health animal care guidelines.
# (§2) Bone marrow was prepared as previously described (Ildstad and Sachs, Nature, 307:168 (1984)). Briefly, B10.BR donor mice were euthanized and tibias and femurs harvested. Bone marrow was expelled from the bones with Media 199 (Gibco, Grand Island, N.Y.) containing 10 μg/ml Gentamicin (Gibco) (MEM). The cells were filtered through sterile nylon mesh with 100 μm pores, spun for minutes at 200×g and 4° C., and resuspended in MEM. A cell count was performed and the cells were diluted to a final concentration of 15×10^6 bone marrow cells per 1 ml of MEM.
# (§3) CD4-KO and CD8-KO mice were treated with TBI from a cesium source (Gamma-cell 40, Nordion, Ontario, Canada). Doses from 0 to 300 cGy were administered according to the experimental groups. Animals were transplanted with 1 ml MEM containing 15×10^6 B10.BR bone marrow cells via lateral tail vein injection within 4 hours after irradiation.
# (§4) Peripheral blood was obtained from the mice by tail-vein bleeding. The blood was collected in heparinized Eppendorf tubes 28 days, 3 months and 6 months after BMT. Fifty μl of whole blood were incubated for 7 minutes with 2 ml of lysing buffer (8.29 g of NH4Cl, 1.0 g of KHCO3 and 0.0372 g Na2EDTA in 1 liter H2O to lyse red blood cells. The cells were washed with 2 ml FACS medium (0.36 g NaHCO3, 1.0 g NaN3 and 1.0 g bovine serum albumin in 1 liter Hanks Balanced Salt Solution and spun at 200×g for 10 minutes at 4° C. After the supernatant was carefully decanted, cells were mixed with 10 μl diluted monoclonal antibodies (mAb; details discussed infra) and incubated for 30 minutes at 4° C. in the dark. The appropriate dilution for the use of the mAb was determined in titration experiments prior to use. After the incubation, the cells were washed twice with 2 ml of FACS medium and spun at 200×g for minutes at 4° C. Finally, the cells were fixed with 1% paraformaldehyde in PBS. The analyses were carried out on a FACS-Calibur (Becton Dickinson, Mountain View, Calif.) with CellQuest software (Becton Dickinson).
# (§5) PBL were stained with mAb specific for MHC Class I antigens of donor (FITC conjugated anti-H2K^k, 36-7-5, mouse IgG1) and recipient (PE-conjugated anti-H2K^b, AF6-88.5, mouse IgG2a) origin to determine the percentage of donor chimerism. Multi-lineage engraftment was assessed by staining with biotinylated anti-H2K^k (36-7-5, mouse IgG1), FITC-conjugated anti-H2K^b (AF6-88.5, mouse IgG2a) and PE-conjugated lineage markers 3 months after BMT. The biotinylated antibody was recovered with Streptavidin-Allophycocyanin (SA-APC). The following antibodies were used as lineage markers: anti-GR-1 (RB6-8C5, rat IgG2^b); anti-MAC-1 (M1/70, rat IgG2^b); anti-CD4 (RM4-5, rat IgG2a); anti-CD8α (53-6.7, rat IgG2a); anti-B220 (RA3-6B2, rat IgG2a); anti-NK1.1 (PK136, mouse IgG2a); anti-TCR-β chain (H57-597, hamster IgG); and anti-γδ-TCR (GL3, hamster IgG). Non-specific background staining was controlled for by using isotype control antibodies directed against irrelevant antigens and conjugated with the same color as the experimental antibody (i.e., anti-TNP mouse IgG2a conjugated with PE served as isotype control for PE-conjugated anti-H2K^b mouse IgG2a). All mAb were obtained from PharMingen (San Diego, Calif.). SA-APC was purchased from Becton Dickinson (Mountain View, Calif.).
# CD4-KO mice = conditions: 300 cGy TBI + 200 mg/kg CyP
# Text: as §1, §2, §3, §4, §5
# CD8-KO mice = tested on: CD8-KO mice
# Text: as §1, §2, §3, §4, §5
structure (smiles),measurement,setting,value
"O=P1(N(CCCl)CCCl)NCCCO1 (stereo not drawn) [CyP, cyclophosphamide]",% animals that engrafted,C57BL/6J mice,0%
same,CD4-KO mice that engrafted,CD4-KO mice; 15 C57BL/6-Cd4 tm/mak mice,None
same,% animals that engrafted,CD4-KO mice; C57BL/6-Cd4 tm/mak (n=15),0%
same,% animals that engrafted,CD4-KO mice; C57BL/10-Cd4 tml (n=5),0%
same,animals with donor chimerism,"CD8-KO mice; 200 mg/kg CyP alone without irradiation, 28 days after BMT",6 of 6 and Six of 6 and 6 out of 6
same,% animals that engrafted,"CD8-KO mice; C57BL/6-Cd8a tm/mak, 300 cGy TBI + 200 mg/kg CyP day 2",100%
same,level of donor chimerism,CD8-KO mice; CyP and 100 cGy TBI (n=6),11±0.4%
same,level of donor chimerism,CD8-KO mice; CyP and 200 cGy TBI (n=6),32.7±1.5%
same,average level of donor chimerism,CD8-KO mice; CyP and 300 cGy TBI (n=16),45.7%±2.5

# Reference: patent US20030165475A1, “Non-lethal methods for conditioning a recipient for bone marrow transplantation” (priority 1993, published 2003)
